Data: patent US10052306B2 (LUC THERAPEUTICS, INC., priority 2013, dated 2018)
Values joined by “and” are separate entries in the source; they are usually repeats but may differ in a detail not shown here. Equal values may be shown once. Read-outs that look alike come from different tables or passages of the source.

How the values were obtained:
NR1/NR2B [1] = biological target: NR1/NR2B (Homo sapiens (Human), UniProt Q13224); assay: Cell assay: FDSS Ca2+ influx inhibition in HEK293 cells expressing NR1/NR2B; conditions: read-out: NR2B NAM IC50;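 also: Fluo-8 Ca2+ signal read on Hamamatsu FDSS 6000 after glutamate, glycine and Ca2+ challenge following 10 min compound preincubation, end/baseline fluorescence ratio compared with MK801 control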
Chain of NR1/NR2B (Homo sapiens (Human), UniProt Q13224) (Q13224 27-1484, other chains not shown): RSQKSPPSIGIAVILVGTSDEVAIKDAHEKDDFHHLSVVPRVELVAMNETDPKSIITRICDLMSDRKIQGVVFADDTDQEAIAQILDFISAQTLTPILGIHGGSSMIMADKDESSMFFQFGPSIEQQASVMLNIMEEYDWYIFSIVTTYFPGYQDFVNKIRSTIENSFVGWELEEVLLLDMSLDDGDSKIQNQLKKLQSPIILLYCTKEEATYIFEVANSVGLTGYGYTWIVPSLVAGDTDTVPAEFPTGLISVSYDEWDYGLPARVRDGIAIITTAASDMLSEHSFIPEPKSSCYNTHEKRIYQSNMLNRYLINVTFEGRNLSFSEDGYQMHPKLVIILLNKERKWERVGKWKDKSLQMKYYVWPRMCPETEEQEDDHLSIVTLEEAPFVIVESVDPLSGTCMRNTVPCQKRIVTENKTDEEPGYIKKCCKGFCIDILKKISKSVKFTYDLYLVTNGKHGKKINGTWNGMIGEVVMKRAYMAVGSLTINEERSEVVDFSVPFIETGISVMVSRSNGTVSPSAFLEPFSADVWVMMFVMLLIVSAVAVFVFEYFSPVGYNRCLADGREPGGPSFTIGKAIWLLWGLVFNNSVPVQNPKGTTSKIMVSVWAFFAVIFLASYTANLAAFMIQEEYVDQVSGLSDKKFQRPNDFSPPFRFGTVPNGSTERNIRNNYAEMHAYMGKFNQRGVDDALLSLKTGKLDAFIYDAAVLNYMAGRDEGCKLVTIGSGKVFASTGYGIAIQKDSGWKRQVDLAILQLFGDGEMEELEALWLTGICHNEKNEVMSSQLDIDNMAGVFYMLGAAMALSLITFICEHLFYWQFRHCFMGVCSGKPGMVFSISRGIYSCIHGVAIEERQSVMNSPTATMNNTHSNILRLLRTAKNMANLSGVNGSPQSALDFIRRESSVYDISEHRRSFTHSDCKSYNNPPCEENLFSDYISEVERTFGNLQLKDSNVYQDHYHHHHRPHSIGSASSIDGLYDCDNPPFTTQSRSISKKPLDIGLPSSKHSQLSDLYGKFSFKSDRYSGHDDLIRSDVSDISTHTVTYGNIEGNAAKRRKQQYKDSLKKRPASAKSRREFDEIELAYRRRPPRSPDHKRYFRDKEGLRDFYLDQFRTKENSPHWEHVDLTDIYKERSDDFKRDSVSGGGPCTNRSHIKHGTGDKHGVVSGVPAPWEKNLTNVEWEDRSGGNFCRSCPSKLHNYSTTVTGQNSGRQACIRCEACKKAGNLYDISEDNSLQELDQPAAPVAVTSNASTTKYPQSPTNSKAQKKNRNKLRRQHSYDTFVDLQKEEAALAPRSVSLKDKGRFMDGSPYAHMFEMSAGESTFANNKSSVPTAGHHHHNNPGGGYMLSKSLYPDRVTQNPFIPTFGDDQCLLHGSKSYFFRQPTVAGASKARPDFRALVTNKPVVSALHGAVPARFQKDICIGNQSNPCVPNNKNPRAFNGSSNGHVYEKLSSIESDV

NR1/NR2B [2] = biological target: NR1/NR2B (Homo sapiens (Human), UniProt Q05586+Q13224); assay: as above; conditions: Binned Activity
Chain of NR1/NR2B (Homo sapiens (Human), UniProt Q05586+Q13224) (Q13224 27-1484, other chains not shown): as above

[3] = HEK293 cells expressing NR1/NR2B, Ca2+ influx
[4] = HEK293 cells expressing NR1/NR2B, Ca2+ influx, binned NR2B NAM IC50

| IC50 (NR1/NR2B [1]; [3]) | IC50 (NR1/NR2B [2]; [4]) [µM] | Structure (SMILES) | IC50 (NR1/NR2B [1]) [µM] | IC50 (NR1/NR2B [2]) [µM] |
| --- | --- | --- | --- | --- |
| 10 µM | > 10 | O=C(CN1C[C@@H]2C[C@@](O)(Cc3ccccc3)C[C@@H]2C1)c1cccc(-c2cccc(F)c2)c1 [Example 271, 2-((3aR,5r,6aS)-5-benzyl-5-hydroxyhexahydrocyclo-penta[c]pyrrol-2(1H)-yl)-1-(3′-fluoro-[1,1′-biphenyl]-3-yl)ethanone] |  |  |
| 10 µM | > 10 | Cc1cc(C)cc(C[C@]2(O)C[C@H]3CN(CC(=O)c4ccc(O)cc4)C[C@H]3C2)c1 [Example 212, 2-[(3aR,5R,6aS)-5-[(3,5-dimethylphenyl)methyl]-5-hydroxy-octahydrocyclopenta[c]pyrrol-2-yl]-1-(4-hydroxyphenyl)ethan-1-one] |  |  |
| 10 µM | > 10 | O=C(Nc1ccccc1)N1C[C@@H]2C[C@@](O)(c3ccccc3)C[C@@H]2C1 [Example 25, 5-hydroxy-N,5-diphenyl-octahydrocyclopenta[c] pyrrole-2-carboxamide] |  |  |
| 0.145 µM | 0.1 to 1 | Cc1ccccc1C[C@]1(O)C[C@H]2CN(CC(=O)c3ccc(O)cc3)C[C@H]2C1 [Example 183, 2-((3aR,5r,6aS)-5-hydroxy-5-(2-methylbenzyl)hexahydro-cyclopenta[c]pyrrol-2(1H)-yl)-1-(4-hydroxyphenyl)ethanone] |  |  |
|  |  | CC(C(=O)c1ccc(O)cc1)N1C[C@H]2C[C@@H](CCc3ccccc3)C[C@H]2C1 (stereo partly drawn) [Example 325, 1-(4-hydroxyphenyl)-2-((3aR,5r,6aS)-5-phenethylhexa-hydrocyclo-penta[c]pyrrol-2(1H)-yl)propan-1-one] | 0.192 | 0.1 to 1 |
| 0.0223 µM and 0.0228 µM | < 0.1 | Oc1ccc([C@@H](O)CN2C[C@@H]3C[C@@](O)(Cc4ccccc4)C[C@@H]3C2)cc1F [Example 180, (3aR,5R,6aS)-5-benzyl-2-((R)-2-(3-fluoro-4-hydroxyphenyl)-2-hydroxyethyl)octahydro-cyclopenta[c]pyrrol-5-ol] |  |  |
| 0.111 µM | 0.1 to 1 | O=C(CN1C[C@@H]2C[C@@](O)(Cc3cccs3)C[C@@H]2C1)c1ccc(O)c(F)c1 [Example 220, 1-(3-fluoro-4-hydroxyphenyl)-2-(5-hydroxy-5-(thiophen-2-ylmethyl)hexahydro-cyclopenta[c]pyrrol-2(1H)-yl)ethanone] |  |  |
| 7.61 µM | 1 to 10 | COc1ccc(C[C@]2(O)C[C@H]3CN(CC(=O)c4ccc(O)cn4)C[C@H]3C2)cc1 [Example 192, 2-[(3aR,5R,6aS)-5-hydroxy-5-[(4-methoxyphenyl)methyl]-octahydrocyclopenta[c]pyrrol-2-yl]-1-(5-hydroxypyridin-2-yl)ethan-1-one] |  |  |
| 10 µM | > 10 | COc1cccc(NC(=O)N2C[C@@H]3C[C@@](O)(c4cccc(OC)c4)C[C@@H]3C2)c1 [Example 18, 5-hydroxy-N,5-bis(3-methoxyphenyl)-octahydrocyclopenta[c] pyrrole-2-carboxamide] |  |  |
| 10 µM | > 10 | O=C(CN1C[C@@H]2C[C@@](O)(Cc3ccccc3)C[C@@H]2C1)c1cccc(-c2cccnc2)c1 [Example 272, 2-((3aR,5r,6aS)-5-benzyl-5-hydroxyhexahydrocyclo-penta[c]pyrrol-2(1H)-yl)-1-(3-(pyridin-3-yl)phenyl)ethanone] |  |  |
| 10 µM | > 10 | O=C(CCN1C[C@@H]2C[C@@](O)(c3ccccc3)C[C@@H]2C1)c1ccc(O)cc1 [Example 97, 3-(5-hydroxy-5-phenylhexahydrocyclo-penta[c]pyrrol-2(1H)-yl)-1-(4-hydroxyphenyl)propan-1-one] |  |  |
